Reference: ChEMBL document CHEMBL1201862, “PubChem BioAssay data set” (2004)
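How tested: cells in 96-well plates exposed to compound for 48 hours at five concentrations. GI50: concentration for 50% inhibition of growth.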 Calls of active or inactive are those of the source. Cut-off read from the data, not from the text of the source: active = GI50 up to about 1.1 µM and inactive = higher.

Assays:
Experiment in all cases: NCI-60 cell line screen, 48 h
A549 = tested on: A549
COLO 205 = tested on: COLO 205
EKVX = tested on: EKVX
HCT-116 = tested on: HCT-116
HL-60 = tested on: HL-60
IGROV-1 = tested on: IGROV-1
K562 = tested on: K562
LOX IMVI = tested on: LOX IMVI
MOLT-4 = tested on: MOLT-4
Malme-3M = tested on: Malme-3M
NCI-H226 = tested on: NCI-H226
NCI-H522 = tested on: NCI-H522
OVCAR-4 = tested on: OVCAR-4
RXF 393 = tested on: RXF 393
SF-268 = tested on: SF-268
SF-295 = tested on: SF-295
SK-MEL-5 = tested on: SK-MEL-5
U-251 = tested on: U-251
UACC-257 = tested on: UACC-257
UACC-62 = tested on: UACC-62

SMILES | GI50 (A549) | GI50 (COLO 205) | GI50 (EKVX) | GI50 (HCT-116) | GI50 (HL-60) | GI50 (IGROV-1) | GI50 (K562) | GI50 (LOX IMVI) | GI50 (MOLT-4) | GI50 (Malme-3M) | GI50 (NCI-H226) | GI50 (NCI-H522) | GI50 (OVCAR-4) | GI50 (RXF 393) | GI50 (SF-268) | GI50 (SF-295) | GI50 (SK-MEL-5) | GI50 (U-251) | GI50 (UACC-257) | GI50 (UACC-62)
C=CCCN1CCc2c([nH]c3ccccc23)C1C(=O)O (stereo not given) | > 100 µM (inactive) | > 100 µM (inactive) | > 100 µM (inactive) | > 100 µM (inactive) | 93.1 µM (inactive) | > 100 µM (inactive) | > 100 µM (inactive) | > 100 µM (inactive) | > 100 µM (inactive) | > 100 µM (inactive) | 89.7 µM (inactive) | > 100 µM (inactive) | > 100 µM (inactive) | > 100 µM (inactive) | 78.3 µM (inactive) | > 100 µM (inactive) | > 100 µM (inactive) | > 100 µM (inactive) | > 100 µM (inactive) | > 100 µM (inactive)
CC1NC(=O)C(C)C(c2ccccc2)N(N=O)C1c1ccccc1 (stereo not given) | > 100 µM (inactive) | > 63.4 µM (inactive) | > 83 µM (inactive) | > 59 µM (inactive) | 22.9 µM (inactive) | > 81.5 µM (inactive) | 33 µM (inactive) | > 69.5 µM (inactive) | 36.8 µM (inactive) | > 100 µM (inactive) | > 100 µM (inactive) | 88.9 µM (inactive) | 31.3 µM (inactive) | 60.7 µM (inactive) | > 100 µM (inactive) | > 34.7 µM (inactive) | > 71.3 µM (inactive) | > 100 µM (inactive) | > 100 µM (inactive) | > 88.5 µM (inactive)
CC1=CC(C)C(C)N(CC2=NCCN2)c2ccccc21 (stereo not given) | > 87.3 µM (inactive) | 16.9 µM (inactive) | > 100 µM (inactive) | 40 µM (inactive) | > 47 µM (inactive) | > 100 µM (inactive) | 36.9 µM (inactive) | 38.1 µM (inactive) | 55 µM (inactive) | 21.4 µM (inactive) | 68.1 µM (inactive) | 29.2 µM (inactive) | > 100 µM (inactive) | 27.6 µM (inactive) | 72.8 µM (inactive) | 67.3 µM (inactive) | 20.1 µM (inactive) | 76.6 µM (inactive) | 19.5 µM (inactive) | 49.3 µM (inactive)
CC(=O)OCc1c(C)c2ccccc2n1C(C)=O | 53 µM (inactive) | 44.2 µM (inactive) | > 100 µM (inactive) | 44.5 µM (inactive) | 23.9 µM (inactive) | 36.8 µM (inactive) | 23.7 µM (inactive) | 45 µM (inactive) | 29.7 µM (inactive) | 25 µM (inactive) | 87.5 µM (inactive) | 20 µM (inactive) | 32.1 µM (inactive) | 33 µM (inactive) | 43.6 µM (inactive) | 56.9 µM (inactive) | 35.2 µM (inactive) | 36.3 µM (inactive) | 30.3 µM (inactive) | 36.3 µM (inactive)
Cn1c2ccc([N+](=O)[O-])cc2c(=O)n1Cc1ccccc1F | 44.3 µM (inactive) | 39.6 µM (inactive) | 41.5 µM (inactive) | 29.1 µM (inactive) | 64.4 µM (inactive) | 35.1 µM (inactive) | 38.5 µM (inactive) | 31.9 µM (inactive) | 45.8 µM (inactive) | 46.8 µM (inactive) | 29.4 µM (inactive) | 24.5 µM (inactive) | 47.8 µM (inactive) | 61 µM (inactive) | 36.6 µM (inactive) | 54.1 µM (inactive) | 38.3 µM (inactive) | 37.7 µM (inactive) | 42.4 µM (inactive) | 48.5 µM (inactive)
ClCc1ccc2ccc3ccc(CCl)nc3c2n1 | 4.76 µM (inactive) | 1.71 µM (inactive) | 15.6 µM (inactive) | 1.69 µM (inactive) | 1.8 µM (inactive) | 1.7 µM (inactive) | 3.18 µM (inactive) | 1.56 µM (inactive) | 1.73 µM (inactive) | 1.92 µM (inactive) | 2.28 µM (inactive) | 1.76 µM (inactive) | 5.65 µM (inactive) | 1.72 µM (inactive) | 4.19 µM (inactive) | 2.31 µM (inactive) | 1.4 µM (inactive) | 1.93 µM (inactive) | 1.29 µM (inactive) | 1.34 µM (inactive)
CC1=C2C3OC(=O)C(C)C3CCC2(C)C=C/C1=N\c1ccccc1 (stereo not given) | > 100 µM (inactive) | > 100 µM (inactive) | > 100 µM (inactive) | > 100 µM (inactive) | > 100 µM (inactive) | > 100 µM (inactive) | > 100 µM (inactive) | > 100 µM (inactive) | > 100 µM (inactive) | > 100 µM (inactive) | > 100 µM (inactive) | > 100 µM (inactive) | > 100 µM (inactive) | > 100 µM (inactive) | > 100 µM (inactive) | > 100 µM (inactive) | > 100 µM (inactive) | > 100 µM (inactive) | > 100 µM (inactive) | > 100 µM (inactive)
CN(C)C(=O)NCCN1CCCCCc2ccccc21 | > 100 µM (inactive) | > 100 µM (inactive) | > 100 µM (inactive) | > 100 µM (inactive) | 31.3 µM (inactive) | > 100 µM (inactive) | > 100 µM (inactive) | > 100 µM (inactive) | 93.1 µM (inactive) | > 100 µM (inactive) | 49.7 µM (inactive) | > 100 µM (inactive) | 78 µM (inactive) | > 100 µM (inactive) | > 100 µM (inactive) | > 100 µM (inactive) | 24.3 µM (inactive) | > 100 µM (inactive) | 76 µM (inactive) | > 100 µM (inactive)
O=C1C=CC(=O)c2c(Cl)ccc(O)c21 | > 81.8 µM (inactive) | 13.1 µM (inactive) | 21.8 µM (inactive) | 9.79 µM (inactive) | 2.96 µM (inactive) | 14.6 µM (inactive) | 3.48 µM (inactive) | 18.2 µM (inactive) | 4.54 µM (inactive) | 18.7 µM (inactive) | > 91.2 µM (inactive) | 13.9 µM (inactive) | 18.5 µM (inactive) | 16 µM (inactive) | 18.4 µM (inactive) | > 42.3 µM (inactive) | 17.7 µM (inactive) | > 57 µM (inactive) | 16.1 µM (inactive) | 16.8 µM (inactive)
COc1cc2c(ccc3c4cc(OC)c(OC)cc4c[n+](C)c23)cc1O [FAGARONINE] | 19.9 µM (inactive) | 15 µM (inactive) | 39.6 µM (inactive) | 4.24 µM (inactive) | 48 µM (inactive) | 23.2 µM (inactive) | 4.26 µM (inactive) | > 33 µM (inactive) | 4.28 µM (inactive) | 15.6 µM (inactive) | 1.47 µM (inactive) | 0.131 µM (active) | 12.2 µM (inactive) | 30 µM (inactive) | 0.0588 µM (active) | 7.93 µM (inactive) | 4.09 µM (inactive) | 0.264 µM (active) | > 67 µM (inactive) | 1.23 µM (inactive)
